Values quoted from earlier work as cited in patent US20220184095A1 (Mylan Specialty L.P., priority 2019, published 2022).

Conditions: orally delivered, humans

Tmax (time to reach maximum concentration): 4 to 6 h | time to reach the therapeutic concentration that enables the onset of action: 2 to 3 h
Structure (SMILES): Cc1cnc(NC(=O)C2=C(O)c3ccccc3S(=O)(=O)N2C)s1 [meloxicam, 4-hydroxy-2-methyl-N-(5-methyl-2-thiazolyl)-2H-1,2-benzothiazine-3-carboxamide-1,1-dioxide]
